# Assays:
# A549 cells = experiment: Measurement of PGE2-increasing activity in A549 cells (IL-1β stimulated, PGE2 quantified in supernatant); type: cell-based; conditions: Homo sapiens, 24 h; concentration of 1 µM of each compound; IL-1β treated A549 cells; read-out: Increased PGE2 production in A549 cells
# Outline: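 PGE2 secreted into the supernatant was measured by immunoassay 24 h after treatment. Before treatment, A549 cells were cultured 24 h in 10% FBS F12K, washed, and placed in serum-free medium containing compound (DMSO 0.1% final) plus or minus IL-1β, incubated at 37 °C, 5% CO2.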
# human 15-PGDH = molecular target: T1, human 15-PGDH (Homo sapiens, UniProt P15428); experiment: Evaluation of 15-PGDH inhibitory activity (fluorescence enzyme assay, NAD+/PGE2); type: biochemical; conditions: human 15-PGDH enzyme, fluorescence Vmax
# T1 construct: purchased R&D System 5660-DH
# T1 sequence (P15428 1-266): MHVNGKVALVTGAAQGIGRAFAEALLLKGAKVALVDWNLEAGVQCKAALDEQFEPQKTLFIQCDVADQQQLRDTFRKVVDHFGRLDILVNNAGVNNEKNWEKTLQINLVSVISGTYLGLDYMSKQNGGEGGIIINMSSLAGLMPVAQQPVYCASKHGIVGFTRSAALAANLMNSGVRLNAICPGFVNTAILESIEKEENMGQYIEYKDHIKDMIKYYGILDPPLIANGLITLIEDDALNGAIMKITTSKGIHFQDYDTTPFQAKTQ
# Description: 15-PGDH inhibition activity of Example compounds was measured as follows. 6.7 ng of human 15-PGDH (R&D System# 5660-DH) enzyme (10 µL) was added to a black 96 well plate, 60 µL of buffer (50 mM Tris-HCl, pH 7.5, 0.01% Tween 20) was added, and 10 µL of 200 µM β-Nicotinamide adenine dinucleotide sodium salt (Sigma, Cat# N0632-5G) was added. 10 µL of (10x) compound solution in DMSO was added and reacted for 10 minutes at room temperature.
SMILES,IC50 (human 15-PGDH) [nM],fold induction at 1 µM (A549 cells)
"CS(=O)(=O)NC(=O)c1cncc(-c2cccc3c(C(=O)N4CCCCC4)cnn23)c1 [Example 201, N-methylsulfonyl-5-[3-(piperidine-1-carbonyl)pyrazolo[1,5-a]pyridin-7-yl]pyridine-3-carboxamide]",≤ 100,> 1.5
"O=C(c1cnn2c(-c3ccc(N4CC(O)C4)nc3)cccc12)N1CCCCC1 [Example 210, (7-(6-(3-hydroxyazetidin-1-yl)pyridin-3-yl)pyrazolo[1,5-a]pyridin-3-yl)(piperidin-1-yl)methanone]",≤ 100,> 1.5
"Nc1ccc(-c2cccc3c(C(=O)N4CCCCC4)cnn23)cn1 [Example 17, (7-(6-aminopyridin-3-yl)pyrazolo[1,5-a]pyridin-3-yl)(piperidin-1-yl)methanone]",≤ 100,< 1.5
"O=C1NCCc2ccc(-c3cccc4c(C(=O)N5CCCCC5)cnn34)cc21 [Example 131, 7-(3-(piperidine-1-carbonyl)pyrazolo[1,5-a]pyridin-7-yl)-3,4-dihydroisoquinolin-1(2H)-one]",≤ 100,> 1.5
"CC(C)NC(=O)c1ccc(-c2cccc3c(C(=O)N4CCCCC4)cnn23)cn1 [Example 76, N-isopropyl-5-(3-(piperidine-1-carbonyl)pyrazolo[1,5-a]pyridin-7-yl)picolinamide]",≤ 100,> 1.5
"O=C1NCCc2ccc(-c3cccc4c(C(=O)N5CCC(F)CC5)cnn34)cc21 [Example 154, 7-(3-(4-fluoropiperidine-1-carbonyl)pyrazolo[1,5-a]pyridin-7-yl)-3,4-dihydroisoquinolin-1(2H)-one]",≤ 100,> 1.5
"CNC(=O)c1ccc(-c2cccc3c(C(=O)N4CCCCC4)cnn23)cn1 [Example 75, N-methyl-5-(3-(piperidine-1-carbonyl)pyrazolo[1,5-a]pyridin-7-yl)picolinamide]",≤ 100,> 1.5
"O=C(c1cnn2c(-c3ccnc(Cl)c3)cccc12)N1CCCCC1 [Example 8, (7-(2-chloropyridin-4-yl)pyrazolo[1,5-a]pyridin-3-yl)(piperidin-1-yl)methanone]",≤ 100,> 1.5
"O=C(NCc1ccon1)c1cncc(-c2cccc3c(C(=O)N4CCCCC4)cnn23)c1 [Example 55, N-(isoxazol-3-ylmethyl)-5-(3-(piperidine-1-carbonyl)pyrazolo[1,5-a]pyridin-7-yl)nicotinamide]",≤ 100,> 1.5
"N#CCNC(=O)c1ccc(-c2cccc3c(C(=O)N4CCCCC4)cnn23)cc1 [Example 70, N-(cyanomethyl)-4-(3-(piperidine-1-carbonyl)pyrazolo[1,5-a]pyridin-7-yl)benzamide]",≤ 100,> 1.5
"CN1Cc2ccc(-c3cccc4c(C(=O)N5CCC(F)CC5)cnn34)cc2C1=O [Example 231, 6-(3-(4-fluoropiperidine-1-carbonyl)pyrazolo[1,5-a]pyridin-7-yl)-2-methylisoindolin-1-one]",≤ 100,> 1.5
"O=C(c1cnn2c(-c3cccc(-c4nnn[nH]4)c3)cccc12)N1CCCCC1 [Example 113, (7-(3-(1H-tetrazol-5-yl)phenyl)pyrazolo[1,5-a]pyridin-3-yl)(piperidin-1-yl)methanone]",≤ 100,> 1.5
"O=C1NCCc2ccc(Nc3cccc4c(C(=O)N5CCCCC5)cnn34)cc21 [Example 211, 7-[[3-(piperidine-1-carbonyl)pyrazolo[1,5-a]pyridin-7-yl]amino]-3,4-dihydro-2H-isoquinolin-1-one]",≤ 100,> 1.5

# Further lines, with some results ahead:
IC50 (human 15-PGDH) [nM],SMILES,fold induction at 1 µM (A549 cells)
≤ 100,"O=C(c1cnn2c(-c3cc(F)cc(Cl)c3)cccc12)N1CCCCC1 [Example 279, (7-(3-chloro-5-fluorophenyl)pyrazolo[1,5-a]pyridin-3-yl)(piperidin-1-yl)methanone]",< 1.5
≤ 100,"Nc1noc2ccc(-c3cccc4c(C(=O)N5CCCCC5)cnn34)cc12 [Example 259, [7-(3-amino-1,2-benzoxazol-5-yl)pyrazolo[1,5-a]pyridin-3-yl]-(1-piperidyl)methanone]",> 1.5
≤ 100,"O=C(c1cnn2c(-c3ccc(-c4nnco4)cc3)cccc12)N1CCCCC1 [Example 350, [7-[4-(1,3,4-oxadiazol-2-yl)phenyl]pyrazolo[1,5-a]pyridin-3-yl]-(1-piperidyl)methanone]",> 1.5
≤ 100,"O=C(Cc1ccc(C(F)(F)F)nc1)Nc1cncc(-c2cccc3c(C(=O)N4CCCCC4)cnn23)c1 [Example 388, N-(5-(3-(piperidine-1-carbonyl)pyrazolo[1,5-a]pyridin-7-yl)pyridin-3-yl)-2-(6-(trifluoromethyl)pyridin-3-yl)acetamide]",> 1.5
≤ 100,"O=C(c1cnn2c(-c3cncc(-c4ncon4)c3)cccc12)N1CCCCC1 [Example 374, (7-(5-(1,2,4-oxadiazol-3-yl)pyridin-3-yl)pyrazolo[1,5-a]pyridin-3-yl)(piperidin-1-yl)methanone]",> 1.5
≤ 100,"N#Cc1ncc(-c2ccc(-c3cccc4c(C(=O)N5CCCCC5)cnn34)cc2)cn1 [Example 305, 5-[4-[3-(piperidine-1-carbonyl)pyrazolo[1,5-a]pyridin-7-yl]phenyl]pyrimidine-2-carbonitrile]",> 1.5
≤ 100,"Cc1nnc(-c2ccc(-c3cccc4c(C(=O)N5CCCCC5)cnn34)cn2)o1 [Example 364, [7-[6-(5-methyl-1,3,4-oxadiazol-2-yl)-3-pyridyl]pyrazolo[1,5-a]pyridin-3-yl]-(1-piperidyl)methanone]",> 1.5
≤ 100,"O=C(c1cnn2c(-c3cccc(F)n3)cccc12)N1CCCCC1 [Example 271, (7-(6-fluoropyridin-2-yl)pyrazolo[1,5-a]pyridin-3-yl)(piperidin-1-yl)methanone]",> 1.5
≤ 100,"O=C(c1cnn2c(-c3ccc(-c4ncon4)cc3)cccc12)N1CCCCC1 [Example 352, [7-[4-(1,2,4-oxadiazol-3-yl)phenyl]pyrazolo[1,5-a]pyridin-3-yl]-(1-piperidyl)methanone]",> 1.5
≤ 100,"O=C(c1cnn2c(-c3ccc(-c4cn[nH]c4)cc3)cccc12)N1CCCCC1 [Example 346, 1-piperidyl-[7-[4-(1H-pyrazol-4-yl)phenyl]pyrazolo[1,5-a]pyridin-3-yl]methanone]",> 1.5
≤ 100,"O=C(c1cnn2c(-c3cncc([N+](=O)[O-])c3)cccc12)N1CCCCC1 [Example 318, (7-(5-nitropyridin-3-yl)pyrazolo[1,5-a]pyridin-3-yl)(piperidin-1-yl)methanone]",> 1.5
≤ 100,"Cn1nc2ccc(-c3cccc4c(C(=O)N5CCCCC5)cnn34)cn2c1=O [Example 246, 2-methyl-6-(3-(piperidine-1-carbonyl)pyrazolo[1,5-a]pyridin-7-yl)-[1,2,4]triazolo[4,3-a]pyridin-3(2H)-one]",> 1.5
≤ 100,"Cc1nc(-c2c(F)cc(-c3cccc4c(C(=O)N5CCCCC5)cnn34)cc2F)no1 [Example 328, (7-(3,5-difluoro-4-(5-methyl-1,2,4-oxadiazol-3-yl)phenyl)pyrazolo[1,5-a]pyridin-3-yl)(piperidin-1-yl)methanone]",> 1.5
≤ 100,"Nc1noc2cc(-c3cccc4c(C(=O)N5CCCCC5)cnn34)ccc12 [Example 320, [7-(3-amino-1,2-benzoxazol-6-yl)pyrazolo[1,5-a]pyridin-3-yl]-(1-piperidyl)methanone]",> 1.5
≤ 100,"O=C(c1cnn2c(-c3ccnc(-c4cnn(Cc5ncon5)c4)c3)cccc12)N1CCCCC1 [Example 397, (7-(2-(1-((1,2,4-oxadiazol-3-yl)methyl)-1H-pyrazol-4-yl)pyridin-4-yl)pyrazolo[1,5-a]pyridin-3-yl)(piperidin-1-yl)methanone]",> 1.5
≤ 100,"O=C(c1cnn2c(-c3ccc(F)nc3F)cccc12)N1CCCCC1 [Example 266, (7-(2,6-difluoropyridin-3-yl)pyrazolo[1,5-a]pyridin-3-yl)(piperidin-1-yl)methanone]",> 1.5
≤ 100,"O=C(Nc1cncc(-c2cccc3c(C(=O)N4CCCCC4)cnn23)c1)c1cncnc1 [Example 334, N-(5-(3-(piperidine-1-carbonyl)pyrazolo[1,5-a]pyridin-7-yl)pyridin-3-yl)pyrimidine-5-carboxamide]",> 1.5
≤ 100,"COc1noc2ccc(-c3cccc4c(C(=O)N5CCCCC5)cnn34)cc12 [Example 269, (7-(3-methoxybenzo[d]isoxazol-5-yl)pyrazolo[1,5-a]pyridin-3-yl)(piperidin-1-yl)methanone]",> 1.5

# Source: patent publication EP4653437A2 (Innovo Therapeutics Inc., priority 2023, dated 2024)
